Source: patent US20040005636A1, “Method for obtaining the binding affinities of a peptide library to a protein” (priority 2002, published 2004)
Like-named read-outs stand apart in the source and are kept apart here. Ends that are not written are not given here. Peptide text beside a SMILES is read from it. * marks the point of attachment. Fluorescein(5-NHCOCH2) = O=C(C*)Nc1ccc2c(c1)C(=O)OC21c2ccc(O)cc2Oc2cc(O)ccc21

T1: hTRβ-LBD (Homo sapiens, UniProt P10828)
T1 construct: The receptor ERα-LBD or TRβ-LBD, expressed using reported protocols; made in house
T1 sequence (P10828 217-461 limits assumed): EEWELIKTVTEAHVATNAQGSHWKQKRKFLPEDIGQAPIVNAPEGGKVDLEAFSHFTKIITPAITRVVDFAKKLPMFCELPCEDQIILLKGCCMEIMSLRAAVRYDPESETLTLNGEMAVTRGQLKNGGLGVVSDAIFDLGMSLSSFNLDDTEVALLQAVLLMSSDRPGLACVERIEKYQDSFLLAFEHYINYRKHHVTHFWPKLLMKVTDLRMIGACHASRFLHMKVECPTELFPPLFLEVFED

T2: hERα-LBD (Homo sapiens, UniProt P03372)
T2 construct: The receptor ERα-LBD or TRβ-LBD, expressed using reported protocols; made in house
T2 sequence (P03372 311-547 limits assumed): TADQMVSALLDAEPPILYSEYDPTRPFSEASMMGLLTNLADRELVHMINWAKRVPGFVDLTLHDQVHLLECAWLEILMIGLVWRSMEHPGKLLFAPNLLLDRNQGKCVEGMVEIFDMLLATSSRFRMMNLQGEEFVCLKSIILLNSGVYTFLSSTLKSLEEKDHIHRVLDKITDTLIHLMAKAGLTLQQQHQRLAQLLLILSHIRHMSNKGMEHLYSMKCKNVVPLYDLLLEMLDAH

T3: hERα-LBD (ligand binding domain of estrogen receptor α) (human, UniProt P03372 297-554)
T3 construct: Assayed with estradiol, diethylstilbestrol, genistein or tamoxifen present; the ligand is named under assay in each row
T3 sequence (looked up): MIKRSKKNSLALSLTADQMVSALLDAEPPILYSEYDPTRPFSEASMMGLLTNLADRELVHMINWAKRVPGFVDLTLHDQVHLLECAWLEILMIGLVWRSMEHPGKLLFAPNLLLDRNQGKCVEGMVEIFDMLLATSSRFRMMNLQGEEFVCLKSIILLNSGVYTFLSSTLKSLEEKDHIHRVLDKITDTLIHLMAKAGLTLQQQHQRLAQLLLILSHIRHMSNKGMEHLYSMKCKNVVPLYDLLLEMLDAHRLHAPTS

T4: hTRβ-LBD (ligand binding domain of thyroid hormone receptor β) (human, UniProt P10828 202-461)
T4 construct: Assayed with the small-molecule ligand T3 present
T4 sequence (looked up): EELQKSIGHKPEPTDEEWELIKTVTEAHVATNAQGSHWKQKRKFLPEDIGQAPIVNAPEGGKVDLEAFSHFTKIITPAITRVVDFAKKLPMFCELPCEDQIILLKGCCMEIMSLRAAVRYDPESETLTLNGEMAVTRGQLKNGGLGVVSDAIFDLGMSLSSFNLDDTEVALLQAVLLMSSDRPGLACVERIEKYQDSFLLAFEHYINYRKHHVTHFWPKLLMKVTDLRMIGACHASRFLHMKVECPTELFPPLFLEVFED


How the values were obtained:
[1] = target: T1, hTRβ-LBD; details: cited from earlier work
[2] = target: T1, hTRβ-LBD; test: Fluorescence polarization assay of coregulator peptide binding to TRβ-LBD; details: for Kd: TRβ-LBD with ligand T3, 10 nM fluorescent peptide, mean of 2 independent assays in quadruplicate, AL = assay limits, read-out: Observed Kd (dissociation constants for p160 peptides for TRβ)
Procedure: (§1) The peptide library synthesized in Example 1 was assayed with ERα or TRβ receptor. Library members were kept at a constant concentration of 10 nM. A ligand was optionally added to the nuclear hormone receptor.
(§2) The receptor ERα-LBD or TRβ-LBD, expressed using reported protocols (for TR see, e.g., Darimont et al., Genes Dev., 12(21):3343-56, (1998); and for ER, see, e.g., Shiau et al., Cell, (1998), 95(7):927-937), was used. The concentration of protein varied between 0.001-20 μM in the following way. In 96 well plates, hTRβ-LBD or hERα-LBD was serially diluted from 40 μM to 0.002 μM in binding buffer (50 mM Sodium Phosphate, 150 mM NaCl, pH 7.2, 1 mM DTT, 1 mM EDTA, 0.01% NP40, 10% glycerol), containing 200 μM ligand (T3, for TRβ, or estradiol, diethylstilbestrol, genistein or tamoxifen for ERα).
(§3) Subsequently 10 μL of diluted protein was added to 10 μL of fluorescent coregulator peptide (20 nM) in 384-well plates yielding final protein concentrations of […] and 10 nM fluorescent peptide concentration. The samples were allowed to equilibriate for 30 minutes. Binding was then measured using fluorescence polarization (excitation λ at 485 nm, emission λ at 530 nm) on an Analyst AD (available from Molecular Devices).
One of the major potential perturbing phenomena in this assay is unexpected quenching or enhancement of fluorescence intensity. To control for this, both overall fluorescence intensity and fluorescence anisotropy for each sample were simultaneously monitored.
(§4) All experiments were carried out in quadruplicate, with each iteration containing the positive and negative controls, and 10-12 dose points. The data were then fit using Klotz plots to determine IC50 values using nonlinear regression analysis that fits the data to a modification of the model of Heyduk and Lee. (Heyduk et al., Proc. Natl. Acad. Sci., (1990), 1774; Heyduk et al., Nature, (1993), 364, 6437; Heyduk et al., Methods Enzymol., 274, 492. Further analysis was conducted using Hill and Scatchard plots to confirm number and homogeneity of binding sites as discussed hereinbelow.
FIGS. 1 to 3 illustrate the results of three different measurements of the binding affinity of selected members of the SRC peptide library to TRβ-LBD. FIG. 4 illustrates a Scatchard plot, which provides the Kd for the SRC2-2 peptide. FIG. 5 illustrates a Hill plot, which provides the Kd for the SRC2-2 peptide. Both the Scatchard and Hill plot correlate with the direct binding plots illustrated in FIGS. 1-3. The Scatchard data were best fit to a linear function, which indicates a single class of binding sites. The slope of the Hill plot is 1, which also indicates a single class of binding sites. Measured dissociation constants for binding of the SRC peptide library to TRβ are illustrated in Table 3. […]

[3] = target: T2, hERα-LBD; test: Fluorescence polarization assay of coregulator peptide binding to ERα-LBD; details: ERα-LBD in the presence of estradiol; read-out: Dissociation constant for ERα, Estradiol
Procedure: as §1, §2, §3, §4
FIG. 6 illustrates direct binding of SRC2-2 to ERα-LBD in the presence of the ligands estradiol, diethylstilbestrol and genistein. […] Measured dissociation constants for binding of members of the SRC peptide library to ERα, in the presence of 3 different ligands, are illustrated in Table 4 wherein the binding units are μM. Table 5 illustrates a comparison of binding constants (μM) for SRC peptides with the TRβ receptor in the presence of thyroid hormone T3, and the ERα receptor in the presence of estradiol.

[4] = target: T3, hERα-LBD (ligand binding domain of …); test: fluorescence polarization, labelled peptide 10 nM, hERα-LBD titrated, diethylstilbestrol present
Procedure: (§5) The concentration of protein varied between 0.001-20 μM in the following way. In 96 well plates, hTRβ-LBD or hERα-LBD was serially diluted from 40 μM to 0.002 μM in binding buffer (50 mM Sodium Phosphate, 150 mM NaCl, pH 7.2, 1 mM DTT, 1 mM EDTA, 0.01% NP40, 10% glycerol), containing 200 μM ligand (T₃, for TRβ, or estradiol, diethylstilbestrol, genistein or tamoxifen for ERα).
as §3
as §4, with “IC₅₀” for “IC50”

[5] = target: T4, hTRβ-LBD (ligand binding domain of …); test: fluorescence polarization, hTRβ-LBD titrated, T3 present; Table 3 prints ≧3 µM for this pair
Procedure: as §5, §3
as §4, with “IC₅₀” for “IC50”

[6] = target: T3, hERα-LBD (ligand binding domain of …); test: fluorescence polarization, labelled peptide 10 nM, hERα-LBD titrated, genistein present
Procedure: as §5, §3
as §4, with “IC₅₀” for “IC50”

[7] = target: T4, hTRβ-LBD (ligand binding domain of …); test: fluorescence polarization, fluorescein-labelled peptide 10 nM, hTRβ-LBD titrated, T3 present
Procedure: as §5, §3
as §4, with “IC₅₀” for “IC50”

[8] = target: T3, hERα-LBD (ligand binding domain of …); test: fluorescence polarization, labelled peptide 10 nM, hERα-LBD titrated, estradiol present
Procedure: as §5, §3
as §4, with “IC₅₀” for “IC50”

[9] = target: T4, hTRβ-LBD (ligand binding domain of …); test: fluorescence polarization, hTRβ-LBD titrated, T3 present; repeats Table 3
Procedure: as §5, §3
as §4, with “IC₅₀” for “IC50”

[10] = target: T3, hERα-LBD (ligand binding domain of …); test: fluorescence polarization, hERα-LBD titrated, estradiol present; repeats Table 4
Procedure: as §5, §3
as §4, with “IC₅₀” for “IC50”

[11] = TRβ, Darimont et al., Genes & Dev. (1998) 12:3343, read-out: Published Results: Kd app

Row | Kd [2] [nM] | Kd [3] [nM] | Kd [4] [nM] | Kd [6] [nM] | Molecule | Kd [1, 11] [nM] | other results
1 | ≥ 3000 | 1420 |  |  | CC(C)C[C@H](NC(=O)[C@H](C)NC(=O)[C@H](CC(N)=O)NC(=O)[C@H](CCC(=O)O)NC(=O)[C@H](CCCCN)NC(=O)[C@H](CCCCN)NC(=O)[C@H](CCCCN)NC(=O)[C@@H](N)CSCC(=O)Nc1ccc2c(c1)C(=O)OC21c2ccc(O)cc2Oc2cc(O)ccc21)C(=O)N[C@@H](CC(C)C)C(=O)N[C@@H](CCCNC(=N)N)C(=O)N[C@@H](Cc1ccc(O)cc1)C(=O)N[C@@H](CC(C)C)C(=O)N[C@@H](CC(C)C)C(=O)N[C@@H](CC(=O)O)C(=O)N[C@@H](CCCCN)C(=O)N[C@@H](CC(=O)O)C(=O)N[C@@H](CC(=O)O)C(=O)N[C@H](C(=O)N[C@@H](CCCCN)C(=O)N[C@@H](CC(=O)O)C(=O)O)[C@@H](C)O [SRC2-3] | 3200 | 
2 |  |  |  |  | CC(C)C[C@H](NC(=O)[C@H](CCCCN)NC(=O)[C@H](CCCCN)NC(=O)[C@H](Cc1c[nH]cn1)NC(=O)CNC(=O)[C@H](CCCCN)NC(=O)[C@H](CO)NC(=O)[C@H](CCC(=O)O)NC(=O)[C@@H](N)CSCC(=O)Nc1ccc2c(c1)C(=O)OC21c2ccc(O)cc2Oc2cc(O)ccc21)C(=O)N[C@@H](CC(C)C)C(=O)N[C@@H](CCC(N)=O)C(=O)N[C@@H](CC(C)C)C(=O)N[C@@H](CC(C)C)C(=O)N[C@H](C(=O)N[C@@H](CS)C(=O)N[C@@H](CO)C(=O)N[C@@H](CO)C(=O)N[C@@H](CC(=O)O)C(=O)N[C@@H](CC(=O)O)C(=O)N[C@@H](CCCNC(=N)N)C(=O)O)[C@@H](C)O [SRC3-1] (H-C(Fluorescein(5-NHCOCH2))ESKGHKKLLQLLTCSSDDR-OH; N-terminus assumed) |  | Comparison of affinity for TRβ and ERα ([2]; Tables 3, 4 and 5): approximately the same affinity
3 | 930 | 231 |  |  | CC[C@H](C)[C@H](NC(=O)[C@H](CCCCN)NC(=O)[C@H](Cc1c[nH]cn1)NC(=O)[C@H](CCCNC(=N)N)NC(=O)[C@H](C)NC(=O)[C@@H](NC(=O)[C@H](CC(C)C)NC(=O)[C@@H](N)CSCC(=O)Nc1ccc2c(c1)C(=O)OC21c2ccc(O)cc2Oc2cc(O)ccc21)[C@@H](C)O)C(=O)N[C@@H](CC(C)C)C(=O)N[C@@H](Cc1c[nH]cn1)C(=O)N[C@@H](CCCNC(=N)N)C(=O)N[C@@H](CC(C)C)C(=O)N[C@@H](CC(C)C)C(=O)N[C@@H](CCC(N)=O)C(=O)N[C@@H](CCC(=O)O)C(=O)NCC(=O)N[C@@H](CO)C(=O)N1CCC[C@H]1C(=O)N[C@@H](CO)C(=O)N[C@@H](CC(=O)O)C(=O)O [SRC1-2] |  | 
4 | 670 | 222 |  |  | CC[C@H](C)[C@H](NC(=O)[C@H](CCCCN)NC(=O)[C@H](Cc1c[nH]cn1)NC(=O)[C@H](CCCCN)NC(=O)[C@H](CCC(=O)O)NC(=O)[C@H](CCCCN)NC(=O)[C@H](CC(C)C)NC(=O)[C@@H](N)CSCC(=O)Nc1ccc2c(c1)C(=O)OC21c2ccc(O)cc2Oc2cc(O)ccc21)C(=O)N[C@@H](CC(C)C)C(=O)N[C@@H](Cc1c[nH]cn1)C(=O)N[C@@H](CCCNC(=N)N)C(=O)N[C@@H](CC(C)C)C(=O)N[C@@H](CC(C)C)C(=O)N[C@@H](CCC(N)=O)C(=O)N[C@@H](CC(=O)O)C(=O)N[C@@H](CO)C(=O)N[C@@H](CO)C(=O)N[C@@H](CO)C(=O)N1CCC[C@H]1C(=O)N[C@H](C(=O)O)C(C)C [SRC2-2] | 800 | Kd ([1]; hTRβ-LBD, reported value, read-out: Reported Kd): 1000 nM
5 |  |  | 786 | 2000 | C(5‑iodoacetamidofluorescein)KKKENALLRYLLDKDDTKD [SRC2-3 coregulator peptide] |  | Kd [5]: 3000 nM
6 |  |  | 1000 | 250 | C(5‑iodoacetamidofluorescein)ESKGHKKLLQLLTCSSDDR (The peptide has a second, internal Cys) [SRC3-1 coregulator peptide] |  | Kd [7]: 870 nM; Kd [8]: 160 nM; Kd [9]: 870 nM; Kd [10]: 160 nM
